Results on 2 molecules are retold here after patent US20110190244A1, “METHOD OF TREATMENT OF EGFR INHIBITOR TOXICITY” (priority 2010, published 2011).

Like-named read-outs stand apart in the source and are kept apart here.

As usually defined, the IC50 is the midpoint of a concentration-inhibition curve.

The nature of data set [1]: Repeated dose 1- and 6-month oral toxicity, rats. The note with it: versus 80 mg oral dose in patients. The class given is in vivo. The source says:
However, there was a slightly lower exposure over time in rats compared to dogs. […] In vitro and in vivo metabolic studies have shown a large number of metabolites with qualitatively similar in vitro profiles in rats, dogs and man. […] Based on the pharmacokinetic parameters of BN83495, it is not expected to have any significant interaction with EGFR inhibitor/s which are metabolised predominantly by CYP3A4 (Roche products—Tarceva Product Information)
The no observed adverse effect level (NOAEL) was 200 mg/kg/day for males and 50 mg/kg/day for females.

For data set [2] the following is noted: dogs, 50, 250 and 1000 mg/kg/day; cited from earlier work.
A further data set deals with isolated Purkinje fibres. The note with it: only at a high concentration of 50 μM; cited from earlier work.
Data set [3] deals with carcinogen-induced mammary tumours. The note with it: ovariectomized rats; cited from earlier work.
In data set [4] the target is T1, STS (Homo sapiens, UniProt P08842).
T1 construct: from tissue; host or cells: peripheral blood lymphocytes / mononuclear cells and breast tumour tissue of patients
T1 sequence (P08842 22-583): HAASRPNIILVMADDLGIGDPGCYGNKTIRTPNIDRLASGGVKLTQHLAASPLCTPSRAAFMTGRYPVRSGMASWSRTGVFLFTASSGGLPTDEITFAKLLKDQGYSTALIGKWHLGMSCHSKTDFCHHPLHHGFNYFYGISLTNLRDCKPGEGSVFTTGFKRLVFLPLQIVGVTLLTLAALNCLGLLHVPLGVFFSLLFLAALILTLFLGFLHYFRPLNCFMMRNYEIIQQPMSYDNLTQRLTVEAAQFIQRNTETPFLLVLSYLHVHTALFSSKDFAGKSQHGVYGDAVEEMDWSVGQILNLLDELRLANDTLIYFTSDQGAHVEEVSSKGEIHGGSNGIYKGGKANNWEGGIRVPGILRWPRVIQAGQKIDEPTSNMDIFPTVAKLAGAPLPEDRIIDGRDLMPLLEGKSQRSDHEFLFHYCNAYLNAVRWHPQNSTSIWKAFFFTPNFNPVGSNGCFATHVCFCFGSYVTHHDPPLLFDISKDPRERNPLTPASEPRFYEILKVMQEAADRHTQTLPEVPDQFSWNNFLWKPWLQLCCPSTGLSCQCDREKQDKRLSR
The note with it: cited from earlier work.

Data set [5] is described as follows: Oral administration to radiotelemetry instrumented dogs for seven days. The note with it: highest tested dose, versus 80 mg oral dose in patients.
The next data set addresses CYP2C19 (Homo sapiens, UniProt P33261). The note with it: cited from earlier work.
The conditions of data set [6]: cited from earlier work.
For data set [7] the following is noted: cited from earlier work. This is another data set of the same source.
For data set [8] the following is noted: cited from earlier work; for no observed adverse effect level (NOAEL): rats, repeated oral dose.
The next data set deals with T2, hERG current (Homo sapiens, UniProt Q12809).
T2 construct: expressed in transfected cells; host or cells: HEK-293
T2 sequence (Q12809 whole entry): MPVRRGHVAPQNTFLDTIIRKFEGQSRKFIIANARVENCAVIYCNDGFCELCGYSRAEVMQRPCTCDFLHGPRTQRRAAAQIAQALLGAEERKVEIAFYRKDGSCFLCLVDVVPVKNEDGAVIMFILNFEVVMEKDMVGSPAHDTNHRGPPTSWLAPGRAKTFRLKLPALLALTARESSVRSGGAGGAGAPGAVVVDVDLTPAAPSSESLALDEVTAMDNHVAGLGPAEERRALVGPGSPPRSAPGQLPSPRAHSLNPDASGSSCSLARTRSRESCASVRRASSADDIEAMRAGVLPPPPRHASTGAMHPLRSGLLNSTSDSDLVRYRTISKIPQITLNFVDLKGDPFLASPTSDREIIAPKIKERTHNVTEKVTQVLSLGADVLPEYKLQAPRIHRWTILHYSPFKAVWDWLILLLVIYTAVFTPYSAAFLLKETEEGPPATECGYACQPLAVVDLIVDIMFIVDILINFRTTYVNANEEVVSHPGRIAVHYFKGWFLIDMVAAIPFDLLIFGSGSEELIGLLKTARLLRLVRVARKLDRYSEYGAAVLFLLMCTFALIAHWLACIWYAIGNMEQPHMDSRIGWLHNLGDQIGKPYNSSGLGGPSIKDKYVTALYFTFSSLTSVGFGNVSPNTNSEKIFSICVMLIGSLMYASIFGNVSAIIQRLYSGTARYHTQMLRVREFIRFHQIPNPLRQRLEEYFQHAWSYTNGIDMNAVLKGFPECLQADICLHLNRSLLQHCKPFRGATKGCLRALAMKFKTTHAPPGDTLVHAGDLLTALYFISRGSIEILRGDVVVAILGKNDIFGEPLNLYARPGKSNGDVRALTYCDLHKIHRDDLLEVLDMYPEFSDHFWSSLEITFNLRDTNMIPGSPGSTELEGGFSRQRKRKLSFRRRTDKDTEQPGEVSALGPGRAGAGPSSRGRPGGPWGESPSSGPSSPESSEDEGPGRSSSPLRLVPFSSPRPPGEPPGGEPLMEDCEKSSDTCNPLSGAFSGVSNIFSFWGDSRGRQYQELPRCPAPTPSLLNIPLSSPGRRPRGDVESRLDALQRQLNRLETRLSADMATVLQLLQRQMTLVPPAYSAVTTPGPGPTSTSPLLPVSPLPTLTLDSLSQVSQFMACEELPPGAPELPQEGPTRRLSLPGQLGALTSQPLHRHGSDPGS
The note with it: transfected HEK-293 cells, in vitro; read-out: hERG current inhibition IC50; cited from earlier work. For orientation: The hERG channel carries a current that helps repolarise heart muscle cells.

The conditions of data set [9]: cited from earlier work. The source holds these as a separate data set.
For data set [10] the following is noted: dogs, cited from earlier work.
For data set [11], the system named is STS. The note with it: cited from earlier work.
The conditions of data set [12]: rats, 2000 mg/kg oral; cited from earlier work.
For data set [13] the following is noted: rats, single oral doses up to 1200 mg/kg; cited from earlier work.
In data set [14] the target is T1, STS. The note with it: 40 mg dose; cited from earlier work.
The conditions of data set [15]: female patients, 80 mg oral dose; cited from earlier work.
For data set [16] the following is noted: cited from earlier work. This is another data set of the same source.
For data set [17] the following is noted: mice, 2000 mg/kg oral; cited from earlier work.
Where [18] appears, read: rats, 25, 50, 100 and 200 mg/kg/day.

Chain of CYP2C19 (P33261 whole entry): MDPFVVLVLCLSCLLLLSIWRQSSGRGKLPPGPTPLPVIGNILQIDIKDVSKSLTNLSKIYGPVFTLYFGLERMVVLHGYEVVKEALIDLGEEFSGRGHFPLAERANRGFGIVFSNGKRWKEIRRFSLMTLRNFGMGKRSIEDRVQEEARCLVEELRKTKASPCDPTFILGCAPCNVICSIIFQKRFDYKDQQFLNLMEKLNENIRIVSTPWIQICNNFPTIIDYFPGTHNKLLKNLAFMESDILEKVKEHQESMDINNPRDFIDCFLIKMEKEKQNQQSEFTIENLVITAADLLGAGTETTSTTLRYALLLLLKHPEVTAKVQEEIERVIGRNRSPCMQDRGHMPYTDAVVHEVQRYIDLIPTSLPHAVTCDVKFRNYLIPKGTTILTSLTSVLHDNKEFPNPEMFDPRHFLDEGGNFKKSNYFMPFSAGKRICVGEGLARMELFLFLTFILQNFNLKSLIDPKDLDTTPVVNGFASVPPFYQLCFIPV

With `NS(=O)(=O)Oc1ccc2c3c(c(=O)oc2c1)CCCCC3` [BN83495, Sulphamic acid, 6,7,8,9,10,11-hexahydro-6-oxobenzo[b]cyclohepta[d]pyran-3-yl ester], the “exposure (AUC) in rats relative to mean AUC in female patients” value in [1] (female rats) came out at 14 fold; in data set [1] (male rats), 31 fold. Moreover, the adrenal findings entry in data set [2] is listed as “adrenal cortical cell hypertrophy was seen in all treated animal groups”. The kidney findings entry in data set [2] is recorded as “flattened tubular epithelium in one high dose animal/sex”. In addition, the liver findings result in data set [2] is “hepatocellular vacuolation in both sexes at 50 mg/kg/day and in females at 250 and 1000 mg/kg/day”; in data set [8] (setting [18]), “reversible hepatocellular vacuolation in all treated groups”. Besides, the “action potential duration (APD)” value in the data set with isolated Purkinje fibres was “increased action potential duration”. The “growth of mammary tumours stimulated by estrone sulphate (E1S)” value in data set [3] is on record as “blocked the ability of estrone sulphate (E1S) to stimulate the growth”. In addition, the “patients with more than 90% STS inhibition in tumour tissue” value is 3 out of 4 on STS [4] (5 mg dose) and “all 3” on STS [4] (20 mg dose, patients in whom it was measured). For the same molecule, the “inhibition of STS activity in peripheral blood lymphocytes” value at STS [4] (24 hours after dosing on Day 5, both dose groups (5 mg, 20 mg daily)) is reported as “more than 90%”. The “mean maximum plasma exposure relative to mean steady state plasma AUC in female patients” value in [5] amounted to 62 fold. Moreover, in [5], the “mean maximum plasma exposure relative to mean steady state plasma Cmax in female patients” value is given as 103 fold. Further, the “potential clinically significant induction/inhibition of a CYP450 isoenzyme” value on CYP2C19 is listed as “inhibition of CYP2C19”. Moreover, the absorption entry in data set [6] (non-clinical studies) is recorded as “rapid absorption”. In addition, the elimination of radioactivity result in data set [6] (preclinical models, by biotransformation) is given as “mainly via urine”. The distribution result in data set [6] (rats, primarily in blood and related organs, intestine, liver and kidneys) was “widely distributed”. For the same molecule, in data set [6] (uptake and retention related to carbonic anhydrase II enzyme), the erythrocyte uptake result was “sequestered in erythrocytes”. Also, the “best response: stable disease” value in data set [7] (14 patients, 5 mg or 20 mg) is given as 4 patients. Further, the “serum concentrations of oestradiol, androstenediol and testosterone” value in data set [7] (Day 5 assessment) is reported as “significant decreases”. In addition, the tolerability result in data set [7] (both tested doses (5 mg, 20 mg)) was “well tolerated”; in data set [9] (doses 1 mg up to 80 mg) it was “well tolerated up to a dose of 40 mg”. Besides, the “dose proportionality of Cmax, AUC and mean plasma clearance” value in data set [7] (patients, 5 mg and 20 mg) is recorded as “non dose proportional pharmacokinetics”. Besides, the “serum DHEA concentration” value in [7] (patients, 5 mg or 20 mg) is reported as “significant decreases”. The “plasma exposure versus dose” value in data set [8] (6-month repeat dose rat toxicology studies, Day 1) is given as “proportional to dose”. Besides, the “bone findings (femur, tibia and sternum)” value in data set [8] (setting [18]) was “partially reversible osteoid deposition at all treated dose-levels”. The “no observed adverse effect level (NOAEL)” value in data set [8] (females) was 50 mg/kg/day; in data set [8] (males), 200 mg/kg/day. For the same molecule, the IC50 on hERG current is 13 µM. Further, the “drug-related adverse events, Grade 3” value in [9] (observed in 2 patients) is listed as 4. For the same molecule, in data set [9] (preliminary review of ECG data), the “effect on ECG parameters” value is on record as “does not have an effect on ECG parameters”. Besides, the “patients with stable disease for more than 6 months” value in [9] (three higher dose groups) is given as “Four”. In addition, the dose limiting toxicity result in [9] (up to a dose of 40 mg) is “no dose limiting toxicity was observed”. Besides, the haemodynamic effects result in data set [10] (at both doses (150 and 400 mg/kg/day)) was “transient hypotension and reflex tachycardia”. Besides, in data set [10] (oral 150 and 400 mg/kg/day for seven consecutive days), the ECG changes entry is reported as “did not induce any clinically relevant ECG changes”. Also, the “STS inhibition in rodents” value in the data set on STS [11] (in vivo) is recorded as “potent STS inhibitor”. Further, the “adverse effects in single dose oral toxicity study” value in data set [12] and in data set [17] was “did not show any adverse effects” each time. In addition, the “effect on behaviour or respiration” value in data set [13] was “no effect on behaviour or respiration”. Also, the “inhibition of STS in peripheral blood mononuclear cells” value on STS [14] was 95%. Besides, the “mean steady state plasma AUC” value in data set [15] was 1293 ng·h/mL. Moreover, the “mean steady state plasma Cmax” value in [15] is 159 ng/mL. Also, the protein binding entry in [16] is “highly protein bound”.

Consider `CCCN1C(=O)CC2C3CCc4cc(OS(N)(=O)=O)ccc4C3CC[C@]2(C)C1=O` (some centres unmarked) [STX213], for which the “STS inhibition in rodents” value with STS [11] (rodents) is listed as “effectively inhibit STS activity”.
